pIC50: −log10 of the molar value.
Molecular target: T1, human renin (Homo sapiens, UniProt P00797)
T1 construct: A human plasma pool is used as the source of both the substrate (angiotensinogen) and the enzyme (renin); from tissue; host or cells: human plasma pool
T1 sequence (P00797 67-406): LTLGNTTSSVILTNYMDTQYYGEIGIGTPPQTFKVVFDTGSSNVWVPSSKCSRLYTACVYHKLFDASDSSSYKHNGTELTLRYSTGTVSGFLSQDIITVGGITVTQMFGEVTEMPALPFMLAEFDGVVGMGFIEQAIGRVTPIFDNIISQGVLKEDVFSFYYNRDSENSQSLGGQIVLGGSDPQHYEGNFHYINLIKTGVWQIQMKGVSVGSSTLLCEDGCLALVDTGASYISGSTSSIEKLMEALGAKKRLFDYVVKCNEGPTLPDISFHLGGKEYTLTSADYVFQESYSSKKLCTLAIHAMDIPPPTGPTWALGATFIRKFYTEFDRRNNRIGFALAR
Experiment: Plasma renin assay (inhibition of human renin, angiotensin I by RIA)
Format: biochemical
Conditions: human plasma pool, pH 6.0, 2 h incubation at 37°
Procedure: The assay is performed as follows: The test compound (i.e. the inhibitor) is dissolved in dimethylsulfoxide (1 mM stock solution) and diluted with an aqueous buffer solution of 270 mM 2-(N-morpholino)ethanesulfonic acid and 1% human serum albumin (pH 5.85, also containing dimercaprol and 8-hydroxyquinoline sulfate in accordance with the instructions of the RIA kit noted below) to give an assay mixture in which the final dimethylsulfoxide content is 1% (v/v).
A human plasma pool is used as the source of both the substrate (angiotensinogen) and the enzyme (renin). The reaction is initiated by the addition of 50 μL of human plasma pool to 50 μL of various concentrations of inhibitor in the 1% dimethylsulfoxide assay buffer. The plasma renin activity is measured by the amount of angiotensin I generated at pH 6.0 following a 2 h incubation at 37°.
Quantitation of angiotensin I is performed by radioimmunoassay (RIA kit from New England Nuclear-Dupont, Mississauga, ON, Canada). The enzymatic activity of renin is expressed in ng of angiotensin I generated (/mL/2 h). The extent of inhibition of the reaction is determined from the amount of angiotensin I generated in reference to a control prepared without inhibitor. Nonlinear regression analysis is used to calculate the IC50 values, i.e. the molar concentration of the test compound required to cause a 50% inhibition of the enzyme activity.

Row | pIC50 | Structure (SMILES)
1 | 7.03 | CC(C)C[C@H](O)[C@H](O)[C@H](CC1CCCCC1)NC(=O)[C@@H](CC(=O)N(CC(=O)N1CCOCC1)Cc1ccccc1)CC1CC1 [Compound 1, N^4-benzyl-N^4-(2-morpholino-2-oxoethyl)-N^1-[1(S)-(cyclohexylmethyl)-2(R),3(S)-dihydroxy-5-methylhexyl]-2(R)-(cyclopropylmethyl)butanediamide]
2 | 8.22 | CC(C)C[C@H](O)[C@H](O)[C@H](CC1CCCCC1)NC(=O)[C@@H](CC(=O)N(CC(=O)N(C)CCc1ccccn1)Cc1nccs1)Cc1csc(N)n1 [Compound 86, N^4 -{2-{methyl[2-(2-pyridinyl)ethyl]-amino}-2-oxoethyl}-N^4-(2-thiazolylmethyl)-N^1-[1(S)-(cyclohexylmethyl)-2(R),3(S)-dihydroxy-5-methylhexyl]-2(R)-[(2-amino-4-thiazolyl)methyl]-butanediamide]
3 | 8.40 | CC(C)C[C@H](O)[C@H](O)[C@H](CC1CCCCC1)NC(=O)[C@@H](CC(=O)N(CC(=O)N(C)C)CC1CCCCC1)Cc1ccccn1 [Compound 68, N^4-(cyclohexylmethyl)-N^4-[2-(dimethylamino)-2-oxoethyl]-N^1-[1(S)-(cyclohexylmethyl)-2(R),3(S)-dihydroxy-5-methylhexyl]-2(R)-(2-pyridinylmethyl)butanediamide]
4 | 7.18 | CON(C)C(=O)CN(Cc1ccccc1)C(=O)C[C@@H](CC1CC1)C(=O)N[C@@H](CC1CCCCC1)[C@@H](O)[C@@H](O)CC(C)C [Compound 8, N^4-benzyl-N^4 -{2-[(methoxy)methylamino]-2-oxoethyl}-N^1-[1(S)-(cyclohexylmethyl)-2(R),3(S)-dihydroxy-5-methylhexyl]-2(R)-(cyclopropylmethyl)butanediamide]
5 | 8.15 | CC(C)C[C@H](O)[C@H](O)[C@H](CC1CCCCC1)NC(=O)[C@@H](CC(=O)N(CC(=O)N(C)C)CC1CCCCCC1)Cc1cccnc1 [Compound 70, N^4-(cycloheptylmethyl)-N^4-[2-(dimethylamino)-2-oxoethyl]-N^1-[1(S)-(cyclohexylmethyl)-2(R),3(S)-dihydroxy-5-methylhexyl]-2(R)-(3-pyridinylmethyl)butanediamide]
6 | 8.52 | CCC(CC)CN(CC(=O)N(C)CCc1ccccn1)C(=O)C[C@@H](Cc1csc(N)n1)C(=O)N[C@@H](CC1CCCCC1)[C@@H](O)[C@@H](O)CC(C)C [Compound 84, N^4-(2-ethylbutyl)-N^4 -{2-{methyl[2-(2-pyridinyl)ethyl]amino}-2-oxoethyl}-N^1-[1(S)-(cyclohexylmethyl)-2(R),3(S)-dihydroxy-5-methylhexyl]-2(R)-[(2-amino-4-thiazolyl)methyl]-butanediamide]
7 | 8.10 | CCCC(CCC)N(CC(=O)N(C)CCc1ccccn1)C(=O)C[C@@H](Cc1csc(N)n1)C(=O)N[C@@H](CC1CCCCC1)[C@@H](O)[C@@H](O)CC(C)C [Compound 91]
8 | 8.17 | CC(C)C[C@H](O)[C@H](O)[C@H](CC1CCCCC1)NC(=O)[C@@H](CC(=O)N(CC(=O)N(C)C)C[C@@H](C)c1ccccc1)Cc1nccs1 [Compound 40, N^4-[2-(dimethylamino)-2-oxoethyl]-N^4-[2 (S)-phenylpropyl]-N^1-[1(S)-(cyclohexylmethyl)-2(R),3(S)-dihydroxy-5-methylhexyl]-2(S)-(2-thiazolylmethyl)butanediamide]
9 | 9.30 | CC(C)C[C@H](O)[C@H](O)[C@H](CC1CCCCC1)NC(=O)[C@@H](CC(=O)N(CC(=O)N(C)CCN(C)C(=O)N1CCOCC1)[C@@H](C)c1ccccc1)Cc1csc(N)n1 [Compound 15, N^4 -{2-{methyl{2-[methyl(morpholinocarbonyl)amino]ethyl}amino}-2-oxoethyl}-N^4-[1(S)-phenylethyl]-N^1-[1(S)-(cyclohexylmethyl)-2(R),3(S)-dihydroxy-5-methylhexyl]-2(R)-[(2-amino-4-thiazolyl)methyl]butanediamide]
10 | 7.25 | CC(C)C[C@H](O)[C@H](O)[C@H](CC1CCCCC1)NC(=O)[C@@H](CC(=O)N(CC(=O)N(C)C)Cc1ccccc1)CC1CC1 [Compound 2, N^4-benzyl-N^4-[2-(dimethylamino)-2-oxoethyl]-N^1-[1(S)-(cyclohexylmethyl)-2(R),3(S)-dihydroxy-5-methylhexyl]-2(R)-(cyclopropylmethyl)butanediamide]
11 | 8.00 | CC(C)C[C@H](O)[C@H](O)[C@H](CC1CCCCC1)NC(=O)[C@@H](CC(=O)N(CC(=O)N(C)CCc1ccccn1)CC1CCCCC1)Cc1cccnc1 [Compound 66, N^4-(cyclohexylmethyl)-N^4 -{2-{methyl-[2-(2-pyridinyl)ethyl]amino}-2-oxoethyl}-N^1-[1(S)-(cyclohexylmethyl)-2(R),3(S)-dihydroxy-5-methylhexyl]-2(R)-(3-pyridinylmethyl)-butanediamide]
12 | 6.46 | CC(C)C[C@H](O)[C@H](O)[C@H](CC1CCCCC1)NC(=O)[C@@H](CC(=O)N(CC(=O)N(C)C)Cc1cccnc1)CC1CC1 [Compound 14, N^4-[2-(dimethylamino)-2-oxoethyl]-N^4-(3-pyridinylmethyl)-N^1-[1(S)-(cyclohexylmethyl)-2(R),3(S)-dihydroxy-5-methylhexyl]-2(R)-(cyclopropylmethyl)butanediamide]
13 | 7.89 | CC(C)C[C@H](O)[C@H](O)[C@H](CC1CCCCC1)NC(=O)[C@@H](CC(=O)N(CC(=O)N(C)CCc1ccccn1)Cc1ccccc1)Cc1cccs1 [Compound 34, N^4-benzyl-N^4 -{2-{methyl[2-(2-pyridinyl)ethyl]amino}-2-oxoethyl}-N^1-[1(S)-(cyclohexylmethyl)-2(R),3(S)-dihydroxy-5-methylhexyl]-2(S)-(2-thienylmethyl)butanediamide]
14 | 6.40 | CC(C)C[C@H](O)[C@H](O)[C@H](CC1CCCCC1)NC(=O)[C@@H](CC(=O)N(CC(N)=O)Cc1ccccc1)CC1CC1 [Compound 7, N^4-(2-amino-2-oxoethyl)-N^4-benzyl-N^1-[1(S)-(cyclohexylmethyl)-2(R),3(S)-dihydroxy-5-methylhexyl]-2(R)-(cyclopropylmethyl)-butanediamide]
15 | 8.40 | CC(C)C[C@H](O)[C@H](O)[C@H](CC1CCCCC1)NC(=O)[C@@H](CC(=O)N(CC(=O)N1CCOCC1)CC1CCCCC1)Cc1ccccn1 [Compound 67, N^4-(cyclohexylmethyl)-N^4-(2-morpholino-2-oxoethyl)-N^1-[1(S)-(cyclohexylmethyl)-2(R),3(S)-dihydroxy-5-methylhexyl]-2(R)-(2-pyridinylmethyl)butanediamide]
16 | 8.52 | CC(C)C[C@H](O)[C@H](O)[C@H](CC1CCCCC1)NC(=O)[C@@H](CC(=O)N(CC(=O)N(C)C)Cc1ccccc1)Cc1csc(N)n1 [Compound 52, N^4-benzyl-N^1-[2-(dimethylamino)-2-oxoethyl)-N^1-[1(S)-(cyclohexylmethyl)-2(R),3(S)-dihydroxy-5-methylhexyl]-2(R)-[(2-amino-4-thiazolyl)-methyl]butanediamide]
17 | 6.34 | CC(C)C[C@H](O)[C@H](O)[C@H](CC1CCCCC1)NC(=O)[C@@H](CC(=O)N(CC(=O)N(C)C)[C@H](C)c1ccccc1)CC1CC1 [Compound 16, N^4-[2-(dimethylamino)-2-oxoethyl]-N^4-[1(R)-phenylethyl]-N^1-[1(S)-(cyclohexylmethyl)-2(R),3(S)-dihydroxy-5-methylhexyl]-2(R)-(cyclopropylmethyl)butanediamide]
18 | 8.40 | CC(C)C[C@H](O)[C@H](O)[C@H](CC1CCCCC1)NC(=O)[C@@H](CC(=O)N(CC(=O)N(C)C)[C@@H](C)c1ccccc1)Cc1nccs1 [Compound 54, N^4-[2-(dimethylamino)-2-oxoethyl]-N^4-[1(S)-phenylethyl]-N^1-[1(S)-(cyclohexylmethyl)-2(R),3(S)-dihydroxy-5-methylhexyl]-2(S)-(2-thiazolylmethyl)butanediamide]
19 | 7.74 | CC(C)OC(=O)[C@H](O)[C@H](CC1CCCCC1)NC(=O)[C@@H](CC(=O)N(CC(=O)N(C)CCc1ccccn1)CC1CCCCC1)Cc1csc(N)n1 [Compound 74, N^4-(cyclohexylmethyl)-N^4 -{2-{methyl-[2-(2-pyridinyl)ethyl]amino}-2-oxoethyl}-N^1-[1(S)-(cyclohexylmethyl)-2(R)-hydroxy-3-(1-methylethoxy)-3-oxopropyl]-2(R)-[(2-amino-4-thiazolyl)methyl]butanediamide]
20 | 8.70 | CC(C)C[C@H](O)[C@H](O)[C@H](CC1CCCCC1)NC(=O)[C@@H](CC(=O)N(CC(=O)N(C)C)CC1CC2CCC1C2)Cc1cscn1 (mixture of isomers) [Compound 56, N^4 -{{1(S),2(R),4(S)-and 1(R),2(S),4(R)-{bicyclo[2.2.1]hept-2-yl}methyl}-N^4-[2-(dimethylamino)-2-oxoethyl]-N^1-[1(S)-(cyclohexylmethyl)-2(R),3(S)-dihydroxy-5-methylhexyl]-2(R)-(4-thiazolylmethyl)butanediamide]

From patent publication US5541163A, “Renin inhibiting N-(2-amino-2-oxoethyl)butanediamide derivatives” (Bio-Mega/Boehringer Ingelheim Research Inc., priority 1993, dated 1996)
